Experimental findings from PubChem BioAssay AID1259407 (Chemical Carcinogenesis Research Information System (CCRIS), 2018) are described below.

Active and inactive are the calls of the source. No rule for the calls is given here.

For the data set, the system named is CCRIS mutagenicity, Ames/micronucleus/aberration tests. Put plainly: CCRIS mutagenicity studies.
[1] abbreviates: Test System: AMES SALMONELLA TYPHIMURIUM, Strain/Indicator: TA98, Metabolic Activation: HAMSTER, LIVER, S-9, AROCLOR 1254 (10%), Method: PREINCUBATION
Setting [2] is: Test System: AMES SALMONELLA TYPHIMURIUM, Strain/Indicator: TA98, Metabolic Activation: NONE, Method: PREINCUBATION
Where [3] appears, read: Test System: AMES SALMONELLA TYPHIMURIUM, Strain/Indicator: TA98, Metabolic Activation: RAT, LIVER, S-9, AROCLOR 1254 (10%), Method: PREINCUBATION
[4] abbreviates: Test System: AMES SALMONELLA TYPHIMURIUM, Strain/Indicator: TA100, Metabolic Activation: HAMSTER, LIVER, S-9, AROCLOR 1254 (10%), Method: PREINCUBATION
Setting [5] is: Test System: AMES SALMONELLA TYPHIMURIUM, Strain/Indicator: TA100, Metabolic Activation: NONE, Method: PREINCUBATION
[6] abbreviates: Test System: AMES SALMONELLA TYPHIMURIUM, Strain/Indicator: TA100, Metabolic Activation: RAT, LIVER, S-9, AROCLOR 1254 (10%), Method: PREINCUBATION
[7] abbreviates: Test System: AMES SALMONELLA TYPHIMURIUM, Strain/Indicator: TA1535, Metabolic Activation: HAMSTER, LIVER, S-9, AROCLOR 1254 (10%), Method: PREINCUBATION
Setting [8] is: Test System: AMES SALMONELLA TYPHIMURIUM, Strain/Indicator: TA1535, Metabolic Activation: NONE, Method: PREINCUBATION
[9] abbreviates: Test System: AMES SALMONELLA TYPHIMURIUM, Strain/Indicator: TA1535, Metabolic Activation: RAT, LIVER, S-9, AROCLOR 1254 (10%), Method: PREINCUBATION
The mark [10] stands for this setting: Test System: AMES SALMONELLA TYPHIMURIUM, Strain/Indicator: TA1537, Metabolic Activation: NONE, Method: PREINCUBATION

Consider `C=CC(C)C#N` (centres undefined), for which the mutagenic call is “inactive; negative” (Test System: AMES SALMONELLA TYPHIMURIUM, Strain/Indicator: TA97, Metabolic Activation: HAMSTER, LIVER, S-9, AROCLOR 1254 (5 OR 30%), Method: PREINCUBATION); “inactive; negative” (Test System: AMES SALMONELLA TYPHIMURIUM, Strain/Indicator: TA97, Metabolic Activation: HAMSTER, LIVER, S-9, AROCLOR 1254 (10%), Method: PREINCUBATION); “inactive; negative” (Test System: AMES SALMONELLA TYPHIMURIUM, Strain/Indicator: TA97, Metabolic Activation: NONE, Method: PREINCUBATION); “inactive; negative” (Test System: AMES SALMONELLA TYPHIMURIUM, Strain/Indicator: TA97, Metabolic Activation: RAT, LIVER, S-9, AROCLOR 1254 (10%), Method: PREINCUBATION); “inactive; negative” (Test System: AMES SALMONELLA TYPHIMURIUM, Strain/Indicator: TA97, Metabolic Activation: RAT, LIVER, S-9, AROCLOR 1254 (30%), Method: PREINCUBATION); “inactive; negative” under setting [1]. The mutagenic call reads like this: (Test System: AMES SALMONELLA TYPHIMURIUM, Strain/Indicator: TA98, Metabolic Activation: HAMSTER, LIVER, S-9, AROCLOR 1254 (30%), Method: PREINCUBATION) “inactive; negative”; under setting [2], “inactive; negative”; under setting [3], “inactive; negative”; (Test System: AMES SALMONELLA TYPHIMURIUM, Strain/Indicator: TA98, Metabolic Activation: RAT, LIVER, S-9, AROCLOR 1254 (30%), Method: PREINCUBATION) “inactive; negative”; under setting [4], “inactive; negative”; (Test System: AMES SALMONELLA TYPHIMURIUM, Strain/Indicator: TA100, Metabolic Activation: HAMSTER, LIVER, S-9, AROCLOR 1254 (30%), Method: PREINCUBATION) “inactive; negative”. For the same molecule, the mutagenic call is “inactive; negative” under setting [5]; “inactive; negative” under setting [6]; “inactive; negative” (Test System: AMES SALMONELLA TYPHIMURIUM, Strain/Indicator: TA100, Metabolic Activation: RAT, LIVER, S-9, AROCLOR 1254 (30%), Method: PREINCUBATION); “inactive; negative” under setting [7]; “inactive; negative” (Test System: AMES SALMONELLA TYPHIMURIUM, Strain/Indicator: TA1535, Metabolic Activation: HAMSTER, LIVER, S-9, AROCLOR 1254 (30%), Method: PREINCUBATION); “inactive; negative” under setting [8]. For the same molecule, the mutagenic call reads like this: under setting [9], “inactive; negative”; (Test System: AMES SALMONELLA TYPHIMURIUM, Strain/Indicator: TA1535, Metabolic Activation: RAT, LIVER, S-9, AROCLOR 1254 (30%), Method: PREINCUBATION) “inactive; negative”; (Test System: AMES SALMONELLA TYPHIMURIUM, Strain/Indicator: TA1537, Metabolic Activation: HAMSTER, LIVER, S-9, AROCLOR 1254 (30%), Method: PREINCUBATION) “inactive; negative”; under setting [10], “inactive; negative”; (Test System: AMES SALMONELLA TYPHIMURIUM, Strain/Indicator: TA1537, Metabolic Activation: RAT, LIVER, S-9, AROCLOR 1254 (30%), Method: PREINCUBATION) “inactive; negative”.
For the molecule `B#B`, the mutagenic call runs as follows: under setting [1], “inactive; negative”; (Test System: AMES SALMONELLA TYPHIMURIUM, Strain/Indicator: TA98, Metabolic Activation: NONE, Method: GAS EXPOSURE) “active; positive”; under setting [2], “inactive; negative”; (Test System: AMES SALMONELLA TYPHIMURIUM, Strain/Indicator: TA98, Metabolic Activation: RAT LIVER S-9, PHENOBARBITAL AND BETA-NAPHTHOFLAVONE, Method: GAS EXPOSURE) “active; positive”; under setting [3], “inactive; negative”; (Test System: AMES SALMONELLA TYPHIMURIUM, Strain/Indicator: TA98, Metabolic Activation: RAT, LIVER, S-9, PHENOBARBITAL AND 5,6-BENZOFLAVONE, Method: GAS EXPOSURE) “active; positive”. Also, the mutagenic call runs as follows: under setting [4], “inactive; negative”; under setting [5], “inactive; negative”; (Test System: AMES SALMONELLA TYPHIMURIUM, Strain/Indicator: TA100, Metabolic Activation: RAT LIVER S-9, PHENOBARBITAL AND BETA-NAPHTHOFLAVONE, Method: GAS EXPOSURE) “active; positive”; under setting [6], “inactive; negative”; (Test System: AMES SALMONELLA TYPHIMURIUM, Strain/Indicator: TA100, Metabolic Activation: RAT, LIVER, S-9, PHENOBARBITAL AND 5,6-BENZOFLAVONE, Method: GAS EXPOSURE) “active; positive”; under setting [7], “inactive; negative”. The mutagenic call by setting is: (Test System: AMES SALMONELLA TYPHIMURIUM, Strain/Indicator: TA1535, Metabolic Activation: NONE, Method: GAS EXPOSURE) “inactive; negative”; under setting [8], “inactive; negative”; (Test System: AMES SALMONELLA TYPHIMURIUM, Strain/Indicator: TA1535, Metabolic Activation: RAT LIVER S-9, PHENOBARBITAL AND BETA-NAPHTHOFLAVONE, Method: GAS EXPOSURE) “inactive; negative”; under setting [9], “inactive; negative”; (Test System: AMES SALMONELLA TYPHIMURIUM, Strain/Indicator: TA1535, Metabolic Activation: RAT, LIVER, S-9, PHENOBARBITAL AND 5,6-BENZOFLAVONE, Method: GAS EXPOSURE) “inactive; negative”; (Test System: AMES SALMONELLA TYPHIMURIUM, Strain/Indicator: TA1537, Metabolic Activation: HAMSTER, LIVER, S-9, AROCLOR 1254 (10%), Method: PREINCUBATION) “inactive; negative”. The mutagenic call by setting is: (Test System: AMES SALMONELLA TYPHIMURIUM, Strain/Indicator: TA1537, Metabolic Activation: NONE, Method: GAS EXPOSURE) “inactive; negative”; under setting [10], “inactive; negative”; (Test System: AMES SALMONELLA TYPHIMURIUM, Strain/Indicator: TA1537, Metabolic Activation: RAT LIVER S-9, PHENOBARBITAL AND BETA-NAPHTHOFLAVONE, Method: GAS EXPOSURE) “inactive; negative”; (Test System: AMES SALMONELLA TYPHIMURIUM, Strain/Indicator: TA1537, Metabolic Activation: RAT, LIVER, S-9, AROCLOR 1254 (10%), Method: PREINCUBATION) “inactive; negative”; (Test System: AMES SALMONELLA TYPHIMURIUM, Strain/Indicator: TA1537, Metabolic Activation: RAT, LIVER, S-9, PHENOBARBITAL AND 5,6-BENZOFLAVONE, Method: GAS EXPOSURE) “inactive; negative”; (Test System: E. COLI, Strain/Indicator: WP2 UVRA, Metabolic Activation: NONE, Method: GAS EXPOSURE) “inactive; negative”. In addition, the mutagenic call is “active; positive” (Test System: E. COLI, Strain/Indicator: WP2 UVRA, Metabolic Activation: RAT, LIVER, S-9, PHENOBARBITAL AND 5,6-BENZOFLAVONE, Method: GAS EXPOSURE); “inactive; negative” (Test System: E.COLI, Strain/Indicator: WP2UVRA, Metabolic Activation: NONE, Method: GAS EXPOSURE); “active; positive” (Test System: E.COLI, Strain/Indicator: WP2UVRA, Metabolic Activation: RAT LIVER S-9, PHENOBARBITAL AND BETA-NAPHTHOFLAVONE, Method: GAS EXPOSURE).
As for `Cc1cccc(N=Nc2c(O)ccc3ccccc23)c1C`, the mutagenic call is, setting by setting: (Test System: AMES SALMONELLA TYPHIMURIUM, Strain/Indicator: TA98, Metabolic Activation: NONE, Method: STANDARD PLATE) “inactive; negative”; (Test System: AMES SALMONELLA TYPHIMURIUM, Strain/Indicator: TA98, Metabolic Activation: RAT, LIVER, S-9, Method: STANDARD PLATE) “inactive; negative”; (Test System: AMES SALMONELLA TYPHIMURIUM, Strain/Indicator: TA100, Metabolic Activation: NONE, Method: STANDARD PLATE) “inactive; negative”; (Test System: AMES SALMONELLA TYPHIMURIUM, Strain/Indicator: TA100, Metabolic Activation: RAT, LIVER, S-9, Method: STANDARD PLATE) “inactive; negative”.
